Experimental findings from publication PMC10820527, “Synthesis, Characterization, and Investigation of Anti-Inflammatory and Cytotoxic Activities of Novel Thiourea Derivatives of Naproxen” (Pharmaceutics, 2023) are described below.

Common to all, as to type: cell-based, human
The test system of series [1] is antiapoptotic protein Bcl-2. The series is described as follows: Assessment of apoptosis: Bcl-2 expression (flow cytometry). The conditions noted are these: HeLa cells, 24 h, IC50 concentration, p > 0.05. The protocol: (§1) The aim of this study was to determine the expression of proteins that play a key role in apoptosis. The level of expression of the proapoptotic protein Bax, antiapoptotic protein Bcl-2, and the percentage of cells containing active caspase-3 was evaluated. […] Additionally, HeLa cells were fixed, permeabilized, and rinsed with ice-cold PBS (Fixation and Permeabilization Kit, eBioscience, San Diego, CA, USA). The cells were treated for 15 min at room temperature with a 1:1000 Bcl-2 fluorescein isothiocyanate (FITC) primary antibody (mhbcl01, Life Technologies, Carlsbad, CA, USA) to stain them. For further labeling, permeabilized HeLa cells were incubated with primary antibodies for active-Bax (N20, sc-493; Santa Cruz Biotech Inc., Dallas, TX, USA) and cleaved caspase-3 (#9661, Cell signaling Technology, Danvers, MA, USA) at a ratio of 1:1000 for 30 min. […] With the FC500 (Beckman Coulter), fluorescence of at least 15,000 events/samples had been measured. Negative control antibodies that matched the isotype were used to normalize the fluorescence intensity. The degree of expression of these proteins was indicated by the mean fluorescence intensities for Bax and Bcl-2 (MFIs), which were computed as the ratio of raw mean channel fluorescence to isotype control levels, respectively. […]
A general note: Flow cytometry measures light scatter and fluorescence of single cells or particles in a stream.

The subject of series [2] is HeLa cells. The series is described as follows: Cell cycle analysis (PI staining, flow cytometry). The settings on record: 24 h, IC50 concentration, p < 0.05. As to the method:
The next step in this study was to evaluate whether the rate of division of HeLa tumor cells slows down under the influence of tested compounds. To examine the potential effect of compounds 3 and 8 on the cell cycle of HeLa cells, the cell line was incubated and treated with previously calculated IC50 values. The control population of untreated cells was also harvested and washed in the above-mentioned manner. Furthermore, HeLa cells were harvested, washed with PBS, and fixed with 70% ethanol at +4 °C. Cells were agglomerated and finally resuspended in 1 mL PBS containing RNAse A (500 μg/mL). After 30 min of incubation, cells were stained with 5 μL PI (10 mg/mL PBS). After 15 min of incubation in the dark, the samples were examined using a Beckman Coulter FC500 flow cytometer.

In series [3] the test system is HeLa cells. As to the kind of experiment: Annexin V/PI flow cytometry (type of cell death). As to the method: (§2) The type of cell death induced by compounds 3 and 8 was determined by the annexin V–fluorescein isothiocyanate (FITC)/propidium iodide (PI) Apoptosis Kit (BD Biosciences, Franklin Lakes, NJ, USA). […] Furthermore, tested HeLa cells were trypsinized, washed in PBS, centrifuged, and resuspended in 100 μL of ice-cold binding buffer. The tested cells were then stained with both 10 μL of Annexin V-FITC and 20 μL of […], incubated for 15 min in the dark at room temperature, and 400 μL of binding buffer was added to each tube. The obtained samples were measured with a flow cytometer Cytomics FC500 (Beckman Coulter, Brea, CA, USA). In addition, the obtained data were analyzed using FlowJo V10 Software. Measurements were presented as the representative density plots of Annexin V-FITC and PI staining and the average values of three independent experiments.

Series [4] in a line: Annexin V/PI flow cytometry (type of cell death). The settings on record: human; HeLa cells, 24 h, IC50 concentration; representative plot; read-out: viable cells (Q4, lower left quadrant). The protocol: as §2
Series [5] concerns active caspase-3. As to the kind of experiment: Assessment of apoptosis: cells containing active caspase-3 (flow cytometry). The settings on record: HeLa cells, 24 h, IC50 concentration, p < 0.05. As to the method:
as §1

As for `COc1ccc2cc([C@H](C)C(=O)NC(=S)Nc3ccccc3)ccc2c1` [Compound 8, (S)-2-(6-methoxynaphthalen-2-yl)-N-(phenylcarbamothioyl)propanamide], the “Amount of the antiapoptotic protein Bcl-2 (in words)” value in series [1] is recorded as “insignificantly changed”. For the same compound, in series [2], the “Effect on cell cycle of HeLa cells (in words)” value is recorded as “induced G0/G1 phase arrest”. In addition, the “Type of HeLa cell death induced (in words)” value in series [3] (24 h of treatment, p < 0.05) is “induced apoptosis”. For the same compound, the “late apoptotic cells (Q2, upper right quadrant)” value in series [3] (HeLa cells, 24 h, IC50 concentration, Annexin V-FITC/PI) is recorded as 1–3%. For the same compound, the viability at 24 h in series [4] was found to be 49.2%. Moreover, in series [5], the “Percentage of cells containing active caspase-3 (in words)” value was “increased compared to the untreated cells”.
